Results: publication PMC11645656, “MRGPRX4 mediates phospho-drug associated pruritus in a humanized mouse model” (Science translational medicine, 2024)
Where “and” joins values, the source holds several entries; their conditions need not be identical. Equal entries are not always repeated. Where two headings read alike, the source gives them in different places.

Assays:
[1] = tested on: NP2-WT mice; experiment: Itch behavioral study (scratching bouts after subcutaneous nape injection) in littermate control NP2-WT mice; format: in vivo; conditions: 30 min after injection of 50 μl 10 mM into the nape, each cell one mouse
Excerpt: Fig. 2. Phosphate monoester prodrugs induce itch in NP2-MRGPRX4+ mice through activating NP2 primary sensory neurons. (A) Mating strategy to generate NP2-X4+ mice. (B) In situ hybridization showing MRGPRX4 transcripts (magenta) in NP2-X4+ DRG as indicated by arrowheads (left) but not in littermate control NP2-WT (right). NP2 subpopulation accounts for 5% of total DRG neurons. DAPI, blue. Scale bar, 50 μm. […] . Data are expressed as mean ± SEM. *p< 0.05, **p< 0.01 and ***p< 0.001 by two-tailed unpaired Student’s t-test. ns = no statistical significance observed. (D and E) Traces of average (top, depicted as mean ± 95% confidence interval) and individual (bottom, reflected by the heatmap) calcium activity, measured by fluorescence intensity normalized to the baseline intensity (FT/F0) over time of NP2-X4+ (D) and NP2-WT (E) DRG neurons labelled with GCaMP6s (n = 110–150 neurons pooled from 3–7 independent culture vessels from 2–4 mice in each condition). 10 μM phospho-drugs and 1 mM CQ were added as indicated by the arrowheads. Neurons with FT/F0 > 1.5 after compound application were considered a positive responder. NP2-X4+: NP2-MRGPRX4+; DRG, dorsal root ganglia; CQ: chloroquine.
. All the animals used were heterozygous unless otherwise specified. NP2-X4+ and NP2-WT littermates were generated by crossing Mrgpra3-Cre to Rosa26-lsl-MRGPRX4 as detailed previously ([15]). NP2-X4+ mice were further crossed to homozygous Rosa26-lsl-GCaMP6s to obtain NP2-WT/GCaMP6s and NP2-X4+/GCaMP6s animals. A detailed mating strategy is illustrated in fig. S5. Pirt-Cre-GCaMP6s animals were acquired by crossing Pirt-Cre to homozygous Rosa26-lsl-GCaMP6s. Pirt-Cre animals were generated through homologous recombination as indicated previously ([37]). Rosa26-lsl-GCaMP6s mouse line was provided by Dr. Dwight Bergles’ lab at the Johns Hopkins School of Medicine.

[2] = biological target: MRGPRX4 WT (S83) (Homo sapiens, UniProt Q96LA9, L83S); experiment: Calcium mobilization assay (FLIPR), WT (S83) MRGPRX4 transiently expressed in HEK293T cells; format: cell-based; set-up: expressed in transfected cells; host or cells: HEK293T, transient; conditions: for EC50: WT (S83), Fig. 4E, unit not in the head, taken from Concentration (M) of the sheet and pEC50 [M] of Fig. 4E; for Calcium mobilization response (Fig. 4D dose-response) / calcium mobilization response (Fig. 3E and 3F dose-response): WT; for Calcium mobilization response (Fig. 4D dose-response): each cell one replicate; for Potency at S83- vs L83-MRGPRX4: calcium mobilization, compared with S83L (A17)
Chain of MRGPRX4 WT (S83) (Q96LA9 whole entry L83S): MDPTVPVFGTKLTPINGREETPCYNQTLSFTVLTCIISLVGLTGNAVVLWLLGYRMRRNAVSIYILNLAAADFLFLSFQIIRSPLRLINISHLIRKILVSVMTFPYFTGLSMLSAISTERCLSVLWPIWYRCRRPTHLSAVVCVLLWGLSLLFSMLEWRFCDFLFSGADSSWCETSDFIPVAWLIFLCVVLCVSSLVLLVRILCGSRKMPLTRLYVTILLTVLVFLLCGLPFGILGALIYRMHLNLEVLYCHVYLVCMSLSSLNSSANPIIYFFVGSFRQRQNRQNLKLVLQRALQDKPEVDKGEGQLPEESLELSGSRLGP
Excerpt: Fig. 4. […] Hydrogen bond is shown as cyan dashed lines. […] Data are from three independent experiments, performed in triplicate. (E) pEC50 plots of various agonists toward S83- and L83-MRGPRX4 through calcium mobilization assay. […] Each data point represents an independent experiment, performed in triplicate. The extra sum-of-square F test was used to examine the difference in EC50 values. One-sided t-test was used for nateglinide. *p< 0.05, **p< 0.01 and ***p< 0.001. ns = no statistical significance. Both (D) and (E) are reported as the mean ± SEM. N.D.= no detectable response ≤ 100 μM.
HEK293 cells and MRGPRX4 stably expressed HEK293 cells were seeded in 100 μl culture media on 96-well plates at a density of 40,000 cells per well and incubated overnight. The next day, the media were replaced with a dye-loading solution from the FLIPR Calcium 5 assay kit (Molecular Devices), diluted in Hank's Balanced Salt Solution (HBSS) with 20 mM HEPES, pH 7.4. After 1 h of incubation at 37°C, cells were allowed to recover for 10 min in the dark at room temperature prior to performing intracellular calcium mobilization assay in a Flexstation-3 instrument with SoftMax®Pro 7.1 software (Molecular Devices). Serial concentrations of tested drugs were prepared in HBSS/HEPES solution at 3X concentration. […] Compounds were tested in triplicates and the signals were averaged. Responses were determined by subtracting the minimum signal (at the baseline before adding the drug) from the maximum signal (obtained after drug stimulation). Four-parameter logistic (4PL) curve fit was used to plot the dose-response curves. […] Both dose-response curve fitting and EC50s calculation are computed with GraphPad Prism software (version: 6.o or above).
To generate murine Mrgprs expressing cells, HEK293T cells (ATCC) were seeded on poly-D-lysine coated 96 well plate at 25,000 cells per well one day prior to transfection. HEK293T cells were transiently co-transfected with the mammalian expression plasmids carrying cDNA encoding the murine Mrgpr genes and plasmid inserted with cDNA encoding murine α-subunit of the heterotrimeric G15 protein (Gα15) in triplicates using Lipofectamine LTX reagents (Thermo Scientific). To generate WT, S83L, and alanine mutant MRGPRX4-expressing cells, HEK293T cells were seeded on poly-D-lysine coated 384 well plate at 12,000 cells per well one day prior to transfection. Mammalian expression plasmids pLX304 (vector from Addgene) carrying different MRGPRX4 coding sequences were transiently transfected into HEK293T cells in triplicates with Lipofectamine LTX reagents (Thermo Scientific). Intracellular calcium mobilization assays were performed after one day of transfection. Murine Mrgprs tested include Mrgpra1, Mrgpra2a, Mrgpra2b, Mrgpra3, Mrgpra4, Mrgpra6, Mrgpra9, Mrgpra10, Mrgpra11, Mrgpra12, Mrgpra14, Mrgprb5, Mrgprb6, Mrgprb10, Mrgprb11, and Mrgprc11. WT and mutant MRGPRX4 constructs tested include WT, S83L, R82A, R86A, R95A, W158A, Y250A, and Y254A.

Structure (SMILES)	Scratching bouts of individual animals [1]	EC50 ([2]; read-out: EC50s (each well represents individual experiment))	Calcium mobilization response (Fig. 4D dose-response) ([2]; 5.65e-9 M)	calcium mobilization response (Fig. 3E and 3F dose-response) ([2]; 4.12e-6 M)	Calcium mobilization response (Fig. 4D dose-response) ([2]; 4.12e-6 M)	calcium mobilization response (Fig. 3E and 3F dose-response) ([2]; 1.23e-5 M)	Potency at S83- vs L83-MRGPRX4 [2]	EC50 ([2]; EC50s (each well represents individual experiment))	calcium mobilization response (Fig. 3E and 3F dose-response) ([2]; 4.57e-8 M)	calcium mobilization response (Fig. 3E and 3F dose-response) ([2]; 4.12e-7 M)	Calcium mobilization response (Fig. 4D dose-response) ([2]; 4.12e-7 M)
O=C1NC(c2ccccc2)(c2ccccc2)C(=O)N1COP(=O)(O)O [Fosphenytoin]	33 and 0 and 2 and 9 and 5 and 14 and 6 and 20 and 4	7.21e-07 M and 5.46e-06 M and 1.46e-06 M	-11.5543	76.9188	76.9188	82.4819	improved potency at S83-MRGPRX4	–	–	–	–
CC(C)c1cccc(C(C)C)c1OCOP(=O)(O)O [Fospropofol]	2 and 38 and 3 and 10 and 15 and 17 and 76 and 40 and 18 and 43	–	–	–	–	–	improved potency at S83-MRGPRX4	2.8e-08 M and 4.03e-08 M and 1.9e-08 M	59.0909	88.6023	88.6023
O=C1NC(=O)C(c2ccccc2)(c2ccccc2)N1 [Phenytoin]	7 (2×) and 14 and 1 and 11 and 59 and 2 and 5 and 42 and 24	–	–	–	–	–	–	–	–	–	–
